Data: paper doi:10.1101/679118v2 (biorxiv, 2019)

Tested on: E. histolytica
Experiment: microbe, parasite or virus in culture
Set-up: species or system Entamoeba histolytica HM-1:IMSS trophozoites
Details: Entamoeba histolytica, 24 h, read-out: EC50 E. histolytica

| Structure (SMILES) | EC50 [µM] |
| --- | --- |
| NC1CCN(c2c(F)cc3c(=O)c(C(=O)O)cn(C4CC4)c3c2Cl)C1 (centres unmarked) [Clinafloxacin] | 270 |
| COc1cc(NS(C)(=O)=O)ccc1Nc1c2ccccc2nc2ccccc12 [Amsacrine] | 80 |

Next, values leading:

| EC50 [µM] | Structure (SMILES) |
| --- | --- |
| 250 | O=C(O)c1cn(C2CC2)c2cc(N3CCNCC3)c(F)cc2c1=O [ciprofloxacin] |
| 200 | COc1cc([C@@H]2c3cc4c(cc3[C@@H](O[C@@H]3O[C@@H]5CO[C@@H](C)O[C@H]5[C@H](O)[C@H]3O)[C@H]3COC(=O)[C@H]23)OCO4)cc(OC)c1O [etoposide] |
| 15 | C[C@H]([C@H](C)N1CC(=O)NC(=O)C1)N1CC(=O)NC(=O)C1 [ICRF 193] |
